Type in all cases: in vivo, male Wister rats
Experiment [1] concerns Hydrochloric acid-Ethanol-Induced Ulcers. In words: Hydrochloric acid-Ethanol-Induced Ulcers. Particulars: Rattus norvegicus, intraduodenal, read-out: Inhibition ratio(%); for inhibition in vivo at 20 mg/kg: 3 h, Table 1, dose 20 mg/kg intraduodenally three hours before hydrochloric acid - 60% ethanol. The method, then: (§1) Experiments on Hydrochloric acid-Ethanol-Induced Ulcers, Aspirin-Induced Ulcers, Water-Immersion stress-Induced Ulcers, Shay's Ulcers and Serotonin-Induced Ulcers were carried out using male Wister rats weighing about 200g in groups of six. Experiments on Ischemia-Reperfusion -Induced Gastric Lesions were carried out using male SD rats weighing about 250g in groups of six. Other than for the tests on Ischemia-Reperfusion-Induced Gastric Lesions Models, the test compounds were prepared by mixing thoroughly with polyethyleneglycol and 0.5% sodium carboxymethyl cellulose solution and emulsifying vigorously. Activities against respective ulcer models were evaluated by an inhibiting ratio obtained by dividing the difference between the ulceration indexes of the non-administered group and the test compound group by the non-administered group.
To each rat which had been fasted for 24 hours was orally administered 0.5ml of a mixed solution of 150 mM hydrochloric acid - 60% ethanol per 100g of weight. Each rat was slaughtered after one hour, a length of ulcer formed at the fundus gland area of stomach was measured and ulceration index was calculated based on the length. The test compound was administered intraduodenally one hour or three hours before the administration of mixed solution of hydrochloric acid - 60% ethanol.

Experiment [2] relates to Serotonin-Induced Ulcers. In words: Serotonin-Induced Ulcers. The following applies: Rattus norvegicus, 4.5 h; dose 20 mg/kg intraduodenally 30 minutes before Serotonin creatinine sulfate 30 mg/kg subcutaneously; read-out: Serotonin, inhibiting ratio. As for the experimental part:
as §1
To each rat which had been fasted for 24 hours, 30 mg/kg of a solution of serotonin creatinine sulfate in a saline solution was administered subcutaneously. Each rat was then slaughtered after 4 and a half hours and area of gastric mucosal lesion formed facing the center line of greater curvature of the corpus ventriculi of stomach was measured and ulceration index was calculated based on the area. The test compound was administered intraduodenally 30 minutes before the administration of the Serotonin creatinine sulfate.
(§2) The results of Aspirin-Induced Ulcers, Water-immersion stress-Induced Ulcers, Shay's Ulcers, Serotonin-induced Ulcers and Ischemia-Reperfusion-Induced Gastric lesions are shown in Table 3.

The test system of experiment [3] is Shay's Ulcers. In words: Shay's Ulcers. Particulars: Rattus norvegicus, intraduodenal, 14 h, read-out: Shay, inhibiting ratio; for inhibition in vivo at 50 mg/kg: dose 50 mg/kg intraduodenally immediately after the ligation. As for the experimental part:
as §1
In each rat which had been fasted for 48 hours, the pyloric end of stomach was ligated, and each was kept without giving any food or water for 14 hours. Each rat was then slaughtered, and area of ulcer formed in the forestomach was measured and ulceration inded was calculated based on the area. The test compound was administered intraduodenally immediately after the ligation.
as §2

Experiment [4] relates to Water-Immersion stress-Induced Ulcers. The experiment is described as follows: Water-Immersion stress-Induced Ulcers. Particulars: Rattus norvegicus, po, 10 h, read-out: Water-Immersion Stress, inhibiting ratio; for inhibition in vivo at 50 mg/kg: dose 50 mg/kg orally 10 minutes before the exposure to stress; for inhibition in vivo at 20 mg/kg: dose 20 mg/kg orally 10 minutes before the exposure to stress. As for the experimental part: as §1
Each rat which had been fasted for 15 hours was immobilized in a stress cage and immersed to chest depth in a water bath at 21°C. Each rat was slaughtered after 10 hours, a length of ulcer formed at the fundus gland area of stomach was measured and ulceration index was calculated based on the length. The test compound was administered orally 10 minutes before the exposure to stress.
as §2

Experiment [5] deals with Aspirin-Induced Ulcers. The experiment is described as follows: Aspirin-Induced Ulcers. The following applies: Rattus norvegicus, 9 h, 5 minutes before 150 mg/kg of aspirin orally, read-out: Aspirin, inhibiting ratio; for inhibition in vivo at 50 mg/kg: dose 50 mg/kg intraduodenally at pylorus ligation. The method, then:
as §1
In each rat which had been fasted for 24 hours, the pyloric end of the stomach was ligated, and simultaneously the test compound was administered intraduodenally, and after 5 minutes, 150 mg/kg of aspirin was administered orally, respectively. After 9 hours from ligation, each rat was slaughtered, a length of ulcer formed at the fundus gland area of stomach was measured and ulceration index was calculated based on the length.
as §2

Molecules are shown by their SMILES. Counter-ions that a name gives are not always drawn.

Experimental findings from patent EP0528699B1, “Saishin N derivatives, process for their preparation and anti-ulcer agents containing them” (TOKYO TANABE COMPANY LIMITED, priority 1991, dated 1993) are described below.

With `CC(=O)OC1CC(C)C(=O)CC(C)(C)C1OC(C)=O` (stereo not drawn) [AU117, 2,4-cis-4,5-diacetoxy-2,6,6-trimethylcycloheptan-1-one], the inhibition in vivo at 20 mg/kg came out at 62% in experiment [1] and 60% in experiment [2].

With `COC1C=C(C)C(=O)CC(C)(C)C1O` (stereo not shown) [AU154, 5-hydroxy-4-methoxy-2,6,6-trimethyl-2-cyclohepten-1-one], the inhibition in vivo at 50 mg/kg in experiment [3] came to 22%; in experiment [4] it was 17%. In addition, in experiment [1] (1 h, Table 2, dose 10 mg/kg intraduodenally one hour before hydrochloric acid - 60% ethanol), the inhibition in vivo at 10 mg/kg was 67%. Also, the results for the inhibition in vivo at 20 mg/kg in experiment [1] and in experiment [2] were 21% and 46%, respectively. Take `CC1=CC(OC(=O)c2ccccc2)C(O)C(C)(C)CC1=O` (stereo not shown) [AU190, 4-benzoyloxy-5-hydroxy-2,6,6-trimethyl-2-cyclohepten-1-one]: the inhibition in vivo at 50 mg/kg in experiment [3] was 55%; in experiment [5] it was 55%; in experiment [4], 45%. The results for the inhibition in vivo at 20 mg/kg in experiment [1] and in experiment [2] were 66% and 69%, respectively.

Consider `COC1C(OC(=O)c2ccc([N+](=O)[O-])cc2)C=C(C)C(=O)CC1(C)C` (stereo not shown) [AU238, 5-methoxy-4-(4-nitrobenzoyloxy)-2,6,6-trimethyl-2-cyclohepten-1-one], for which the inhibition in vivo at 20 mg/kg in experiment [1] is 40%. On to `COC1C(OC(=O)c2ccc(N)cc2)C=C(C)C(=O)CC1(C)C` (stereo not shown) [AU239, 4-(4-aminobenzoyloxy)-5-methoxy-2,6,6-trimethyl-2-cyclohepten-1-one], for which the inhibition in vivo at 20 mg/kg in experiment [1] turned out to be 41%. The same measure, in the same setting: for `CC1=CC(O)C(OC(=O)c2ccc(N)cc2N)C(C)(C)CC1=O` (stereo not shown) [AU241, 5-(2,4-diaminobenzoyloxy)-4-hydroxy-2,6,6-trimethyl-2-cyclohepten-1-one] the value was 37%.

In the case of `CC1=CC(OC(=O)c2ccc(N)cc2N)C(O)C(C)(C)CC1=O` (stereo not shown) [AU242, 4-(2,4-diaminobenzoyloxy)-5-hydroxy-2,6,6-trimethyl-2-cyclohepten-1-one], the inhibition in vivo at 20 mg/kg in experiment [1] amounted to 60%. Same read-out and setting: for `COC1C=C(C)C(=O)CC(C)(C)C1OC(=O)Cc1csc(N)n1` (stereo not shown) [AU243, 5-(2-aminothiazol-4-yl) acetoxy-4-methoxy-2,6,6-trimethyl-2-cyclohepten-1-one] the value was 29%. `CC1=CC(OC(=O)c2ccc(N)cc2)C2OC1(OCCO)CC2(C)C` (stereo not shown) [AU249, 4-(4-aminobenzoyloxy)-1-(2-hydroxyethoxy)-2,6,6-trimethyl-8-oxabicyclo [3.2.1] oct-2-ene]: the inhibition in vivo at 20 mg/kg amounted to 65% in experiment [1] and 33% in experiment [4].

On to `CC1CC(O)C2OC1(OC(=O)c1ccc([N+](=O)[O-])cc1)CC2(C)C` (stereo not drawn) [AU250, 2,4-cis-1-(4-nitrobenzoyloxy):2,6,6-trimethyl-8-oxabicyclo [3.2.1] octan-4-ol], for which, in experiment [1], the inhibition in vivo at 20 mg/kg is 36%. On to `CC1CC(O)C2OC1(OC(=O)c1ccc(N)cc1)CC2(C)C` (stereo not drawn) [AU251, 2,4-cis-1-(4-aminobenzoyloxy)-2,6,6-trimethyl-8-oxabicyclo [3.2.1] octan-4-ol], for which the inhibition in vivo at 20 mg/kg in experiment [1] is 30%. Same read-out and setting: for `CC1CC(O)C2OC1(OC(=O)c1ccccc1)CC2(C)C` (stereo not drawn) [AU252, 2,4-cis-1-benzoyloxy-2,6,6-trimethyl-8-oxabicyclo [3.2.1] octan-4-ol] the value was 31%. Take `CC1=CC(OC(=O)C=Cc2ccc(N)cc2)C(O)C(C)(C)CC1=O` (stereo not shown) [AU401, 4-(4-aminocinnamoyloxy)-5-hydroxy-2,6,6-trimethyl-2-cyclohepten-1-one]: the results for the inhibition in vivo at 20 mg/kg in experiment [1] and in experiment [2] were 49% and 68%, respectively. With `CC1=CC(OC(=O)c2ccco2)C(O)C(C)(C)CC1=O` (stereo not shown) [AU403, 4-(2-furoyloxy)-5-hydroxy-2,6,6-trimethyl-2-cyclohepten-1-one], in experiment [1], the inhibition in vivo at 20 mg/kg turned out to be 31%. Turning to `COC1C=C(C)C(=O)CC(C)(C)C1OC(=O)c1ccc([N+](=O)[O-])cc1[N+](=O)[O-]` (stereo not shown) [AU407, 5-(2,4-dinitrobenzoyloxy)-4-methoxy-2,6,6-trimethyl-2-cyclohepten-1-one], the inhibition in vivo at 20 mg/kg came out at 82% in experiment [1] and 41% in experiment [2]. Besides, the values for the inhibition in vivo at 50 mg/kg in experiment [5] and in experiment [4] were 71% and 50%, respectively.

As for `COC1C=C(C)C(=O)CC(C)(C)C1OC(=O)c1ccc(N)c(N)c1` (stereo not shown) [AU410, 5-(3,4-diaminobenzoyloxy)-4-methoxy-2,6,6-trimethyl-2-cyclohepten-1-one], the inhibition in vivo at 20 mg/kg in experiment [1] was determined as 75%. Take `COc1cc(C=CC(=O)OC2C(O)C=C(C)C(=O)CC2(C)C)ccc1O` (stereo not shown) [AU414, 4-hydroxy-5-(4-hydroxy-3-methoxycinnamoyloxy)-2,6,6-trimethyl-2-cyclohepten-1-one]: the inhibition in vivo at 20 mg/kg in experiment [1] was 89%; in experiment [4], 41%. With `COC1C=C(C)C(=O)CC(C)(C)C1OC(=O)c1ccc2nc(N)[nH]c2c1` (stereo not shown) [AU415, 5-(2-aminobenzimidazolyl-5-carbonyloxy)-4-methoxy-2,6,6-trimethyl-2-cyclohepten-1-one], in experiment [1], the inhibition in vivo at 20 mg/kg was 30%. As to `COc1cc(C=CC(=O)OC2C=C(C)C(=O)CC(C)(C)C2O)ccc1O` (stereo not shown) [AU416, 5-hydroxy-4-(4-hydroxy-3-methoxycinnamoyloxy)-2,6,6-trimethyl-2-cyclohepten-1-one], the inhibition in vivo at 20 mg/kg in experiment [1] is 72%. Consider `COc1cc(C=CC(=O)OC2C=C(C)C3(OC)CC(C)(C)C2O3)ccc1O` (stereo not shown) [AU417, 4-(4-hydroxy-3-methoxycinnamoyloxy)-1-methoxy-2,6,6-trimethyl-8-oxabicyclo [3.2.1] oct-2-ene], for which the inhibition in vivo at 20 mg/kg in experiment [1] turned out to be 69%. On the same count and under the same terms, for `CC1=CC(O)C(OC(=O)c2nc[nH]c2C)C(C)(C)CC1=O` (stereo not shown) [AU504, 4-hydroxy-5-(5-methyl-4-imidazolylcarbonyloxy)-2,6,6-trimethyl-2-cyclohepten-1-one] the value was 39%; for `CC1=CC(OC(=O)C=Cc2ccc(O)cc2)C(O)C(C)(C)CC1=O` (stereo not shown) [AU506, 5-hydroxy-4-(4-hydroxycinnamoyloxy)-2,6,6-trimethyl-2-cyclohepten-1-one], 81%. Consider `COC1C=C(C)C(=O)CC(C)(C)C1OC(=O)c1ccc2nc[nH]c2c1` (stereo not shown) [AU507, 5-(5-benzimidazolylcarbonyloxy)-4-methoxy-2,6,6-trimethyl-2-cyclohepten-1-one], for which the inhibition in vivo at 20 mg/kg in experiment [1] came to 63%. Regarding `COC12CC(C)(C)C(O1)C(OC(=O)C=Cc1ccc(O)cc1)C=C2C` (stereo not shown) [AU508, 4-(4-hydroxycinnamoyloxy)-1-methoxy-2,6,6-trimethyl-8-oxabicyclo [3.2.1] oct-2-ene], the inhibition in vivo at 20 mg/kg in experiment [1] is 82%. The same measure, in the same setting: for `COc1ccc(COC2C=C(C)C(=O)CC(C)(C)C2O)cc1` (stereo not shown) [AUM09, 5-hydroxy-4-(4-methoxybenzyloxy)-2,6,6-trimethyl-2-cyclohepten-1-one] the value was 17%. For `NC[C@H]1CC[C@H](C(=O)Oc2ccc(CCC(=O)O)cc2)CC1` [Cetraxatehydrochloride, reference compound], the inhibition in vivo at 300 mg/kg stood at 11% in experiment [3] (dose 300 mg/kg intraduodenally immediately after the ligation), 33% in experiment [5] (dose 300 mg/kg intraduodenally at pylorus ligation) and 45% in experiment [4] (dose 300 mg/kg orally 10 minutes before the exposure to stress).
